Assay results from patent US11958813B2, “Uracil compound containing carboxylate fragment, preparation method therefor, and herbicidal composition and use thereof” (JIANGSU FLAG CHEMICAL INDUSTRY CO., LTD., priority 2021, dated 2024).

Columns and labels:
Experiment in all cases: Greenhouse herbicidal activity test, post-emergence
Assay type in all cases: in vivo
Polypogon fugax = settings: determined 21 days later; for inhibition at 7.5 g/ha / inhibition at 15 g/ha: Polypogon fugax, 504 h, read-out: fresh weight inhibition rate, Polypogon fugax
Text: (§1) A herbicidal activity test method for the compounds of the present invention was as follows:
(§2) Post-emergence: an appropriate quantity of seeds of gramineous weeds (Echinochloa crusgalli, Eleusine indica, Digitaria sanguinalis, Alopecurus japonicus, Beckmannia syzigachne, Leptochloa chinensis, Polypogon fugax, Alopecurus aequalis, Lolium multiflorum, and Poa annua), broad-leaved weeds (Eclipta prostrata, Amaranthus retroflexus, Brassica juncea, Malachium aquaticum, Conyza canadensis, and Sesbania cannabina), and Cyperus iria were sown in plastic pots having a diameter of 7 cm and holes at the bottom and filled with nutrient soil (sandy soil, pH 6.1, organic matter 1%) respectively, the seeds were covered with an appropriate amount of soil after being sown, then the soil was wetted with water from the bottom, the seeds were cultured in a constant-temperature illuminated culture room until a 2-4 leaf stage, and stems and leaves underwent spray treatment. After the treatment, the test materials were placed in a laboratory and cultured in the constant-temperature illuminated culture room after the liquid was naturally dry in the shade, and results were determined 21 days later.
(§3) According to the foregoing test method, a parallel experiment was carried out on herbicidal activities of some compounds of the general formula (I), the compound Butafenacil (compound 47 in the patent specification) specifically disclosed in U.S. Pat. No. 5,183,492A, and the compound CK (compound 1 in the patent specification) specifically disclosed in U.S. Pat. No. 5,183,492A, at application doses of 7.5 g a.i./ha and 15 g a.i./ha.

Sesbania cannabina = settings: determined 21 days later; for inhibition at 7.5 g/ha / inhibition at 15 g/ha: Sesbania cannabina, 504 h, read-out: fresh weight inhibition rate, Sesbania cannabina
Text: as §1, §2, §3

Alopecurus japonicus = settings: determined 21 days later; for inhibition at 7.5 g/ha / inhibition at 15 g/ha: Alopecurus japonicus, 504 h, read-out: fresh weight inhibition rate, Alopecurus japonicus
Text: as §1, §2, §3

Row | SMILES | inhibition at 7.5 g/ha (Polypogon fugax; dose 7.5 g a.i./ha) [%] | inhibition at 15 g/ha (Polypogon fugax; dose 15 g a.i./ha) [%] | inhibition at 7.5 g/ha (Sesbania cannabina; dose 7.5 g a.i./ha) [%] | inhibition at 15 g/ha (Sesbania cannabina; dose 15 g a.i./ha) [%] | inhibition at 7.5 g/ha (Alopecurus japonicus; dose 7.5 g a.i./ha) [%] | inhibition at 15 g/ha (Alopecurus japonicus; dose 15 g a.i./ha) [%] | fresh weight inhibition rate, Polypogon fugax (Polypogon fugax; dose 7.5 g a.i./ha) | fresh weight inhibition rate, Polypogon fugax (Polypogon fugax; dose 15 g a.i./ha) | fresh weight inhibition rate, Sesbania cannabina (Sesbania cannabina; dose 7.5 g a.i./ha) | fresh weight inhibition rate, Sesbania cannabina (Sesbania cannabina; dose 15 g a.i./ha) | fresh weight inhibition rate, Alopecurus japonicus (Alopecurus japonicus; dose 7.5 g a.i./ha) | fresh weight inhibition rate, Alopecurus japonicus (Alopecurus japonicus; dose 15 g a.i./ha)
1 | COC(=O)C(C)OC(=O)c1cc(-n2c(=O)cc(C(F)(F)F)n(C)c2=O)c(F)cc1Cl (stereo not drawn) [CK, reference compound] | < 55 | 55 to 70 | 55 to 70 | 70 to 85 | < 55 | 55 to 70 |  |  |  |  |  | 
2 | COCCOC(=O)C(C)(C)OC(=O)c1cc(-n2c(=O)cc(C(F)(F)F)n(C)c2=O)c(F)cc1Cl [Compound 207] |  |  |  |  |  |  | A (A indicates that the inhibition rate was greater than or equal to 85% to 100%) | A (A indicates that the inhibition rate was greater than or equal to 85% to 100%) | A (A indicates that the inhibition rate was greater than or equal to 85% to 100%) | A (A indicates that the inhibition rate was greater than or equal to 85% to 100%) | A (A indicates that the inhibition rate was greater than or equal to 85% to 100%) | A (A indicates that the inhibition rate was greater than or equal to 85% to 100%)
3 | C=CCOCCOC(=O)C(C)(C)OC(=O)c1cc(-n2c(=O)cc(C(F)(F)F)n(C)c2=O)c(F)cc1Cl [Compound 214] |  |  |  |  |  |  | A (A indicates that the inhibition rate was greater than or equal to 85% to 100%) | A (A indicates that the inhibition rate was greater than or equal to 85% to 100%) | A (A indicates that the inhibition rate was greater than or equal to 85% to 100%) | A (A indicates that the inhibition rate was greater than or equal to 85% to 100%) | A (A indicates that the inhibition rate was greater than or equal to 85% to 100%) | A (A indicates that the inhibition rate was greater than or equal to 85% to 100%)
4 | COCCOC(=O)COC(=O)c1cc(-n2c(=O)cc(C(F)(F)F)n(C)c2=O)c(F)cc1Cl [Compound 3] |  |  |  |  |  |  | B (B indicates that the inhibition rate was greater than or equal to 70% to less than 85%) | A (A indicates that the inhibition rate was greater than or equal to 85% to 100%) | A (A indicates that the inhibition rate was greater than or equal to 85% to 100%) | A (A indicates that the inhibition rate was greater than or equal to 85% to 100%) | B (B indicates that the inhibition rate was greater than or equal to 70% to less than 85%) | A (A indicates that the inhibition rate was greater than or equal to 85% to 100%)
5 | COCCOC(=O)C1(OC(=O)c2cc(-n3c(=O)cc(C(F)(F)F)n(C)c3=O)c(F)cc2Cl)CC1 [Compound 258] |  |  |  |  |  |  | A (A indicates that the inhibition rate was greater than or equal to 85% to 100%) | A (A indicates that the inhibition rate was greater than or equal to 85% to 100%) | A (A indicates that the inhibition rate was greater than or equal to 85% to 100%) | A (A indicates that the inhibition rate was greater than or equal to 85% to 100%) | A (A indicates that the inhibition rate was greater than or equal to 85% to 100%) | A (A indicates that the inhibition rate was greater than or equal to 85% to 100%)
6 | C=CCOC(=O)C(C)(C)OC(=O)c1cc(-n2c(=O)cc(C(F)(F)F)n(C)c2=O)ccc1Cl [Butafenacil, reference compound] | < 55 | 55 to 70 | 55 to 70 | 70 to 85 | < 55 | < 55 |  |  |  |  |  | 
